Source: patent US20230365577A1, “Photodynamic Therapy and Diagnosis” (RMW CHO Group Limited, priority 2020, published 2023)
Where a name gives a salt, the structure may show the parent alone. Read-outs that look alike come from different tables or passages of the source.

Tests used:
[1] = test system: SKOV3 ovarian cancer cells; assay: Inherent cytotoxicity (dark toxicity) in SKOV3 cells (AlamarBlue viability); format: cell-based, Human; details: human, 24 h
Procedure: (§1) Human ovarian cancer cell line SKOV3 (ATCC #HTB-77) was maintained in Dulbecco's Modified Eagle Medium/Nutrient Mixture F-12 (DMEM/F-12), supplemented with 10% v/v Fetal Bovine Serum, 100 U/mL penicillin and 100 µg/mL streptomycin. Monolayer cultures were grown in a humidified incubator at 37° C. with 5% CO2.
(§2) For in vitro experiments, photosensitizers (stock solution 5.5 mM in 100% DMSO) were diluted in cell culture media (Dulbecco's Modified Eagle Medium/Nutrient Mixture F-12) supplemented with 10% v/v Fetal Bovine Serum, 100 U/mL penicillin, 100 µg/mL streptomycin and 10% w/v Kollidon-12. Once cells had reached ˜80% confluence, spent media was replaced with media containing photosensitizer and cells were incubated for the desired period of time to allow photosensitizer uptake.
(§3) SKOV3 cells were seeded in 96-well black wall plates (Greiner #655090) at a cell density of 5000 cells in 100 μl culture medium per well. On reaching ˜60% confluence, media was aspirated and replaced with fresh media containing the relevant phyllochlorin analogue from 0-100 μM in DMSO. Cells were incubated for a further 24 hours, allowing uptake of phyllochlorin analogues.
To test for inherent cytotoxicity (i.e. “dark toxicity”) of the phyllochlorin analogue the culture media was replaced after 24 hours with fresh media containing 10% (v/v) AlamarBlue Cell Viability Reagent (ThermoFisher) and cells incubated at 37° C. for 6 hours. Untreated cells were used as a control. Fluorescence (Ex 555 nm/Em 596 nm) was measured using a Cytation 3 Multimode Plate Reader (Biotek), and cytotoxicity assessed according to the % viable cells remaining. All measurements were made in quadruplicate.
(§4) For comparative purposes, phyllochlorin analogues were tested and compared against both chlorin e4 disodium and Talaporfin sodium, a clinically approved photosensitizer used in the photodynamic treatment of lung cancers. Phototoxicity IC90 values and dark toxicity IC10 values were calculated using a log[inhibitor]-vs normalized response dose curve with variable slope, using the formula Y=100/(1+(IC90/X)^HillSlope (phototoxicity IC90) or Y=100/(1+(IC10/X)^HillSlope (dark toxicity IC10).

[2] = test system: SKOV3 ovarian cancer cells; assay: Phototoxicity in SKOV3 cells (652 nm laser, AlamarBlue viability); format: cell-based, Human; details: read-out: Cellular Toxicity: Phototoxicity IC90, SKOV3, 24 h uptake, 652 nm laser 50 mW/cm2 5 mins (15 J/cm2), viability 24 h later
Procedure: as §1, §2
as §3, with “confluence, so” for “confluence,”
To test for phototoxicity, cells incubated with phyllochlorin analogues (0-10 μM in DMSO) had culture media replaced after 24 hours (as above) and were then exposed to a 652 nm laser (Invion) with laser density at 50 mW/cm^2 for 5 mins (total 15 J/cm^2). Following activation, cells were cultured for a further 24 hours. Media was then replaced with fresh media containing AlamarBlue, and % viable cells remaining assessed as above. Controls included cells treated with phyllochlorin analogues but not activated by laser light; cells without phyllochlorin analogue treatment but with laser light; and untreated controls. All measurements were made in quadruplicate.
as §4

SKOV3 cells = assay: Cellular uptake and retention (intrinsic fluorescence); format: cell-based, Human; details: for Uptake and clearance, comparison of the two salt forms: SKOV3, 24 hours uptake then 24 hours clearance
Procedure: Based on the increased phototoxicity of compound 1c versus compound 1, it was assessed whether this salt substitution alters cellular uptake or retention over time. SKOV3 cells were incubated for up 24 hours in the presence of either compound 1 or 1c (as previously described). At defined time intervals (FIG. 5) the media was aspirated, replaced with sterile PBS, and cells imaged for fluorescence (Ex 405 nm/Em 660 nm) using a Cytation 3 Multimode Plate Reader (Biotek). After 24 hours the media was aspirated, replaced with fresh media and the loss of cellular fluorescence similarly monitored. All images (minimum 100 cells per time point) were then quantitatively analysed (Gen5.0 software) and an average fluorescence/cell/time point determined. Average fluorescence measurements were normalised against the maximum average value measured for each photosensitizer, and plotted as percent total fluorescence (mean±SD) overtime.
The uptake and retention of compounds 1 and 2 was compared in SKOV3 cancer cells over a 48 hour period. SKOV3 cells were incubated for up 24 hours in the presence of either compound 1 or 2 (as previously described). At defined time intervals (FIG. 6) the media was aspirated, replaced with sterile PBS, and cells imaged for fluorescence (Ex 405 nm/Em 660 nm) using a Cytation 3 Multimode Plate Reader (Biotek). After 24 hours the media was aspirated, replaced with fresh media and the loss of cellular fluorescence similarly monitored. All images (minimum 100 cells per time point) were then quantitatively analysed (Gen5.0 software) and an average fluorescence/cell/time point determined. Average fluorescence measurements were normalised against the maximum average value measured for each photosensitizer, and plotted as percent total fluorescence (mean±SD) over time.
Phyllochlorin was functionalised with saccharidyl groups (glucose or mannose) using various configurations, and the effects on rate of uptake by cells assessed over a 4 hour incubation period as above. The rate of uptake of saccharidyl-conjugated phyllochlorin analogues exceeded that of unconjugated compound 2 (examples shown in FIG. 7); after 2 hours, saccharidyl-conjugated phyllochlorin analogues (compounds 6, 8 and 17) had reached 57-68% of their maximal uptake compared to 37% for compound 2 (FIG. 7A). By 4 hours total uptake was similar, and there was no apparent difference in cellular distribution between glucose (compounds 6 and 8) and mannose (compound 17) linked species (FIG. 7B).

[3] = Singlet oxygen (1O2) production rate; format: physicochemical
Description: The production of singlet oxygen (^1O2), cellular phototoxicity and light-independent cytotoxicity (“dark toxicity”) of a number of phyllochlorin analogues were compared against chlorin e4 disodium and Talaporfin sodium (mono-L-aspartyl chlorin e6), the active ingredient of Laserphyrin™.

[4] = test system: 4T1 murine breast cancer cells; assay: Tumour localisation and retention, model 1 (subcutaneous 4T1 tumours); format: in vivo, Balb/C wild type mice; details: 0.1 mg/kg IT, primary breast tumours, IVIS fluorescence
Procedure: Model 1 used Balb/C wild type mice implanted subcutaneously with 10^4×4T1 murine breast cancer cells. When tumours reached a palpable size (˜3-6 mm diameter) mice received compound 6 by either oral gavage (ORAL: 2.5 mg/kg), intravenous injection (IV: 1.0 mg/kg), or intratumoral injection (IT: 1.0 mg/kg in […]). To establish compound 6 localisation, mice were imaged using an IVIS Lumina III In Vivo Imaging System (Perkin Elmer) to detect fluorescence at 660 nm when illuminated under blue (400-460 nm) light.
In a second experiment, the localisation of compound 6 at 24 hours post-administration was compared to that of Talaporfin sodium and 5-Aminolevulinic acid (5-ALA), with all compounds injected at 0.1 mg/kg IT. Fluorescence measurements were made using an IVIS Lumina III instrument (as above).

[5] = Homo sapiens, SK-OV-3, light or radiation study

| SMILES | Singlet Oxygen Production (slope) 1O2 [3] | Cellular Toxicity: Dark toxicity IC10 [1] [nM] | IC90 [2, 5] [nM] | further results |
| --- | --- | --- | --- | --- |
| C=Cc1c(C)c2cc3nc(c(C)c4cc(C)c(cc5nc(cc1[nH]2)C(C)=C5CC)[nH]4)[C@@H](CCC(=O)O)[C@@H]3C [Compound 1, phyllochlorin sodium salt] |  | 21960 |  | IC90 ([2]; sodium salt): 350 nM; Uptake and clearance, comparison of the two salt forms (SKOV3 cells): no significant difference; Fluorescence lost from cells (SKOV3 cells; SKOV3, within 4 hours after replacing media): 80%; Singlet Oxygen Production (slope) 1O2 ([3]; sodium salt): 1445.0 |
| C=Cc1c(C)c2cc3nc(c(C)c4cc(C)c(cc5nc(cc1[nH]2)C(C)=C5CC)[nH]4)[C@@H](CCC(=O)O)[C@@H]3C [Compound 1c, phyllochlorin choline salt] | 1229.0 | 58010 |  | IC90 [2]: 210 nM; Uptake and clearance, comparison of the two salt forms (SKOV3 cells): no significant difference |
| C=Cc1c(C)c2cc3nc(c(C)c4cc(C)c(cc5nc(cc1[nH]2)C(C)=C5CC)[nH]4)[C@@H](CCC(=O)OC)[C@@H]3C [Compound 2, phyllochlorin methyl ester] | 2141.0 | 39620 | 260 | Percent of maximal uptake (SKOV3 cells; SKOV3, after 2 hours incubation): 37%; Compound remaining within cells (SKOV3 cells; SKOV3, after 24 hours clearance): > 50% |
| NCC(=O)CCC(=O)O [Compound 5-ALA, 5-Aminolevulinic acid, reference compound] |  |  |  | Tumour localisation at 24 hours post-administration [4]: could not be accurately detected |
| C=Cc1c(C)c2cc3nc(c(C)c4cc(C)c(cc5nc(cc1[nH]2)C(C)=C5CC)[nH]4)[C@@H](CCC(=O)N(C)CCOCCO[C@@H]1O[C@H](CO)[C@@H](O)[C@H](O)[C@H]1O)[C@@H]3C [Compound 14, 3-((7S,8S)-18-ethyl-2,5,8,12,17-pentamethyl-13-vinyl-7H,8H-porphyrin-7-yl)-N-methyl-N-(2-(2-(((2R,3R,4S,5S,6R)-3,4,5-trihydroxy-6-(hydroxymethyl)tetrahydro-2H-pyran-2-yl)oxy)ethoxy)ethyl)propanamide] | 1293.0 | 22790 | 170 |  |
| C=Cc1c(C)c2cc3nc(c(C)c4cc(C)c(cc5nc(cc1[nH]2)C(C)=C5CC)[nH]4)[C@@H](CCC(=O)N(C)CCCO[C@@H]1O[C@H](CO)[C@@H](O)[C@H](O)[C@H]1O)[C@@H]3C [Compound 15, 3-((7S,8S)-18-ethyl-2,5,8,12,17-pentamethyl-13-vinyl-7H,8H-porphyrin-7-yl)-N-methyl-N-(3-(((2R,3R,4S,5S,6R)-3,4,5-trihydroxy-6-(hydroxymethyl)tetrahydro-2H-pyran-2-yl)oxy)propyl)propanamide] | 976.4 | 14600 | 230 |  |

More lines, main results first:

| Singlet Oxygen Production (slope) 1O2 [3] | SMILES | Cellular Toxicity: Dark toxicity IC10 [1] [nM] | IC90 [2, 5] [nM] | further results |
| --- | --- | --- | --- | --- |
| 884.1 | C=Cc1c(C)c2cc3nc(c(C)c4cc(C)c(cc5nc(cc1[nH]2)C(C)=C5CC)[nH]4)[C@@H](CCC(=O)N(C)CCCS[C@H]1O[C@H](CO)[C@@H](O)[C@H](O)[C@@H]1O)[C@@H]3C [Compound 16, phyllochlorin α-D-1-thiomannose-N-methylpropylamide conjugate] | 28640 | 250 |  |
| 1265.0 | C=Cc1c(C)c2cc3nc(c(C)c4cc(C)c(cc5nc(cc1[nH]2)C(C)=C5CC)[nH]4)[C@@H](CCC(=O)N(C)CCCS[C@@H]1O[C@H](CO)[C@@H](O)[C@H](O)[C@@H]1O)[C@@H]3C [Compound 17, phyllochlorin β-D-1-thiomannose-N-methylpropylamide conjugate] | 76270 | 220 |  |
| 1060.0 | C=Cc1c(C)c2cc3nc(c(C)c4cc(C)c(cc5nc(cc1[nH]2)C(C)=C5CC)[nH]4)[C@@H](CCC(=O)N(C)CCOCCO)[C@@H]3C [Compound 18, 3-((7S,8S)-18-ethyl-2,5,8,12,17-pentamethyl-13-vinyl-7H,8H-porphyrin-7-yl)-N-(2-(2-hydroxyethoxy)ethyl)-N-methylpropanamide] | 32300 | 100 |  |
| 1210.0 | C=Cc1c(C)c2cc3nc(c(C)c4cc(C)c(cc5nc(cc1[nH]2)C(C)=C5CC)[nH]4)[C@@H](CCC(=O)NCCOCCO[C@@H]1O[C@H](CO)[C@@H](O)[C@H](O)[C@H]1O)[C@@H]3C [Compound 20, 3-((7S,8S)-18-ethyl-2,5,8,12,17-pentamethyl-13-vinyl-7H,8H-porphyrin-7-yl)-N-(2-(2-(((2R,3R,4S,5S,6R)-3,4,5-trihydroxy-6-(hydroxymethyl)tetrahydro-2H-pyran-2-yl)oxy)ethoxy)ethyl)propanamide] | 46230 | 230 |  |
| 736.7 | C=Cc1c(C)c2cc3nc(c(CC(=O)N[C@@H](CC(=O)O)C(=O)O)c4[nH]c(cc5nc(cc1[nH]2)C(C)=C5CC)c(C)c4C(=O)O)[C@@H](CCC(=O)O)[C@@H]3C [Talaporfin sodium, mono-L-aspartyl chlorin e6, reference compound] | 11100 | 22800 |  |
